Tests used:
PpfC (Cj0503c) = target: T1, PpfC (Cj0503c) (Campylobacter jejuni, UniProt Q9PI08); assay: ferrochelatase activity, decrease of protoporphyrin IX at […] nm; type: biochemical; settings: 10 µM protoporphyrin IX, 20 µM (NH4)2Fe(SO4)2, 5 mM DTT, 150 mM NaCl, 20% glycerol, Tris-HCl pH 8, anaerobic, room temperature
T1 construct: gene hemH; N-terminal Strep-tag (pPR-IBA2), E. coli BL21STAR(DE3)pLysS, solubilised with Triton X-100
T1 sequence (Q9PI08 1-303): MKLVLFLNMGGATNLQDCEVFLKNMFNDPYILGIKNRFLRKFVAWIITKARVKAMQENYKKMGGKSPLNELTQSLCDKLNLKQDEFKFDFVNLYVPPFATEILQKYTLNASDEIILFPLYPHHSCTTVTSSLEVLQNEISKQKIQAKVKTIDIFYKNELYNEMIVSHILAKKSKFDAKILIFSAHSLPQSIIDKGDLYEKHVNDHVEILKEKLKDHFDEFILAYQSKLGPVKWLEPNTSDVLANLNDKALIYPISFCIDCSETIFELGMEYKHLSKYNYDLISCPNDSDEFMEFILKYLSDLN

CgdH1 (Cj0992c) = target: T2, CgdH1 (Cj0992c) (Campylobacter jejuni, UniProt Q0P9R0); assay: HPLC-MS of porphyrin products; type: biochemical; settings: 10 µM copro'gen III, 1 mM SAM, 0.5 mM NADH, E. coli cell extract added, anaerobic, overnight, room temperature; incomplete reaction via harderoporphyrin intermediate
T2 construct: full length (451 residues), C-terminal His-tag (pET-23b), E. coli BL21STAR(DE3)pLysS; Fe-S cluster reconstituted
T2 sequence (Q0P9R0 1-451): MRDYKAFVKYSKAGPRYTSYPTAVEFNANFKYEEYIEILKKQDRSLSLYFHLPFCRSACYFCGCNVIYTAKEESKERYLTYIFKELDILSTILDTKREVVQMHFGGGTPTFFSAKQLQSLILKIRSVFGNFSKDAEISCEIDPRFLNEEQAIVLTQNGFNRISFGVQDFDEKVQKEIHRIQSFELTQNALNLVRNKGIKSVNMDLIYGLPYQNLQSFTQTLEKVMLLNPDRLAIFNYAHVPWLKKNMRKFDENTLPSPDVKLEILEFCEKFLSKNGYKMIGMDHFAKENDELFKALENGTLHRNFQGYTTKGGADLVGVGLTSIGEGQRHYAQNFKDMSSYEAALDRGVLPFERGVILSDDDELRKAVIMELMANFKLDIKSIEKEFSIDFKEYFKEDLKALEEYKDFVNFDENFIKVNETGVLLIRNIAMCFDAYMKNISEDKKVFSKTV

CgdH2 (Cj0363c) = target: T3, CgdH2 (Cj0363c) (Campylobacter jejuni, UniProt Q0PBE7); assay: UV-visible titration of apo-protein, absorbance difference at […] nm; type: binding
T3 construct: gene hemN; full length (448 residues; 447 aa in Discussion), C-terminal His-tag (pET-23b), E. coli BL21STAR(DE3)pLysS; apo-form without Fe-S cluster
T3 sequence (Q0PBE7 1-448): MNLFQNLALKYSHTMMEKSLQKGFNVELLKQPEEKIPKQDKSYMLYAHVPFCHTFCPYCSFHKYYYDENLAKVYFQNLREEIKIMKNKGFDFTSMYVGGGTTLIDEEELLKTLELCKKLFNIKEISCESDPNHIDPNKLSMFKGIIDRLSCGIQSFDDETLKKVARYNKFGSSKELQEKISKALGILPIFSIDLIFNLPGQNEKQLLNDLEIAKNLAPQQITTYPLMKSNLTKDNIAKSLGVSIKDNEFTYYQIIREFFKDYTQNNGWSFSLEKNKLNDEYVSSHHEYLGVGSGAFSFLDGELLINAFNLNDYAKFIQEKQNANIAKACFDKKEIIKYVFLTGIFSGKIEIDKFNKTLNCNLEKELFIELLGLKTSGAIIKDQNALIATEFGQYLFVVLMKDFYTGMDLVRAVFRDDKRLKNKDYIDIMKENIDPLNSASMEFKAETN

PgdH2 (Cj0362) = target: T4, PgdH2 (Cj0362) (Campylobacter jejuni, UniProt Q0PBE8); assay: fluorescence of protoporphyrin IX ([…] nm) with E. coli membrane fraction versus empty plasmid; type: biochemical; settings: 500 nM proto'gen IX, 150 mM NaCl, 20% glycerol, 5 mM DTT, Tris-HCl pH 8, aerobic
T4 construct: expressed from pPR-IBA2 (Strep-tag vector) in E. coli BL21STAR(DE3)pLysS; membrane fraction, not purified
T4 sequence (Q0PBE8 1-150): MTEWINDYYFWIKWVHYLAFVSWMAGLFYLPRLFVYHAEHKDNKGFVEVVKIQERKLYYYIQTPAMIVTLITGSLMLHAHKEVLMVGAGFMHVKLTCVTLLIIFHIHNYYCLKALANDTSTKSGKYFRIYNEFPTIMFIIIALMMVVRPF

UroD (Cj1243) = target: T5, UroD (Cj1243) (Campylobacter jejuni, UniProt Q9PN54); assay: linked assay, UV-visible spectroscopy and HPLC-MS of coproporphyrin III; type: biochemical; settings: uro'gen III made in situ from porphobilinogen with D. vulgaris PbgS and UroS; Tris-HCl pH 8, anaerobic, overnight
T5 construct: gene hemE; N-terminal Strep-tag (pPR-IBA2), E. coli BL21STAR(DE3)pLysS
T5 sequence (Q9PN54 1-340): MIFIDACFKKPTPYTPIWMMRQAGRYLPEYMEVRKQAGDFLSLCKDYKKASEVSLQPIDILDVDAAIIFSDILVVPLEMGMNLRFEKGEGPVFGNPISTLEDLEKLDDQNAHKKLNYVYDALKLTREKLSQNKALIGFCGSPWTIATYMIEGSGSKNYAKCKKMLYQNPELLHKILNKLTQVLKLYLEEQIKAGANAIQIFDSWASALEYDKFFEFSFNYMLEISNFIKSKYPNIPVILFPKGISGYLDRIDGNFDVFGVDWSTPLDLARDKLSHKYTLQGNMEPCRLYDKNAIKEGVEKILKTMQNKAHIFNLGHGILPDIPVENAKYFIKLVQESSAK

For `C=CC1=C(C)c2cc3[nH]c(cc4nc(cc5[nH]c(cc1n2)c(C)c5CCC(=O)O)C(CCC(=O)O)=C4C)c(C)c3C=C` [protoporphyrin IX], the “ferrochelatase activity, decrease of protoporphyrin IX at 408 nm” value (PpfC (Cj0503c)) was “C. jejuni Cj0503c exhibits a ferrochelatase specific activity”.

In the case of `Cc1c2[nH]c(c1CCC(=O)O)Cc1[nH]c(c(CCC(=O)O)c1C)Cc1[nH]c(c(CCC(=O)O)c1C)Cc1[nH]c(c(C)c1CCC(=O)O)C2` [copro'gen III], the “HPLC-MS of porphyrin products” value (CgdH1 (Cj0992c)) is reported as “The expected final reactional product, protoporphyrin IX (the oxidized form of proto'gen IX), was observed”.

For `C=CC1=C(C)C2=Cc3c(C=C)c(C)c4[n]3[Fe]([Cl])[n]3c(c(C)c(CCC(=O)O)c3=CC3=NC(=C4)C(C)=C3CCC(=O)O)=CC1=N2` [hemin], the Kd (CgdH2 (Cj0363c)) was 4.9 ± 1 µM.

For `C=Cc1c2[nH]c(c1C)Cc1[nH]c(c(CCC(=O)O)c1C)Cc1[nH]c(c(C)c1CCC(=O)O)Cc1[nH]c(c(C)c1C=C)C2` [proto'gen IX], the “fluorescence of protoporphyrin IX (390/630 nm) with E. coli membrane fraction ve” value (PgdH2 (Cj0362)) was “Cells containing Cj0362 exhibited much higher activity for the oxidation of proto'gen IX”.

With `O=C(O)CCc1c2[nH]c(c1CC(=O)O)Cc1[nH]c(c(CC(=O)O)c1CCC(=O)O)Cc1[nH]c(c(CC(=O)O)c1CCC(=O)O)Cc1[nH]c(c(CCC(=O)O)c1CC(=O)O)C2` [uro'gen III] the “linked assay, UV-visible spectroscopy and HPLC-MS of coproporphyrin III” value (UroD (Cj1243)) was “confirmed the formation of copro'gen III”.

Reference: paper PMC10320005, “In Campylobacter jejuni, a new type of chaperone receives heme from ferrochelatase” (Frontiers in Genetics, 2023)
